# Laboratory results from US20200131142A1, “FARNESOID X RECEPTOR AGONISTS AND USES THEREOF” (Metacrine, Inc., priority 2017, published 2020).
# Molecular target: T1, hFXR (Homo sapiens, UniProt Q96RI1)
# T1 construct: expressed in transfected cells; host or cells: CV-1 cells
# T1 sequence (Q96RI1 1-486): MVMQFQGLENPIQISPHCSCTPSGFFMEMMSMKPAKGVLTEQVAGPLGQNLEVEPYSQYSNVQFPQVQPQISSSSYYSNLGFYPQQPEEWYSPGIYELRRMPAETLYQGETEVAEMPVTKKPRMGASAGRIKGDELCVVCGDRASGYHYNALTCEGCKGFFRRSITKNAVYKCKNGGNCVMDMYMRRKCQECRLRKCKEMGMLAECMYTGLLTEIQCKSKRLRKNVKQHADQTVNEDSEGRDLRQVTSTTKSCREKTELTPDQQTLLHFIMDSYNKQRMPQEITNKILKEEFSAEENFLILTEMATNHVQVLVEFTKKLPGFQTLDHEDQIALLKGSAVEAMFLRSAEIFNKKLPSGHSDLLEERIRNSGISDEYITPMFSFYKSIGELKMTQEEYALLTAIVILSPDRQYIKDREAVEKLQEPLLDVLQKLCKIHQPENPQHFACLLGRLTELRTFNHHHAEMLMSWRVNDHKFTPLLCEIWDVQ
# T1 sequence (P19793 1-462 partner): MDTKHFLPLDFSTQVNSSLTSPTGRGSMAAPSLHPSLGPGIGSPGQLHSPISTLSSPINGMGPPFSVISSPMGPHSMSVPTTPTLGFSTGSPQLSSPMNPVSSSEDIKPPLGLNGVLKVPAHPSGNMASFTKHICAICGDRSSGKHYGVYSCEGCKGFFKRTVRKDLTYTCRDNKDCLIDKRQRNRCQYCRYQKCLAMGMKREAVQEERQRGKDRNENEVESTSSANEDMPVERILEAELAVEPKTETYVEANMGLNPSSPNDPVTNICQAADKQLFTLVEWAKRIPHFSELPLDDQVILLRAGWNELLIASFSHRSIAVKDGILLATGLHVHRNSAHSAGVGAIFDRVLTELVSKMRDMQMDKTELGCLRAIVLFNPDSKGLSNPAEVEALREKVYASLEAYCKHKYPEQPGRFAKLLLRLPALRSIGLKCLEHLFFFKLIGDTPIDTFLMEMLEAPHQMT
# Test: In Vitro FXR Assay (TK): hFXR/hRXR TK-ECRE-luc reporter in transfected CV-1 cells
# Format: cell-based
# Conditions: 18 hrs incubation, luminescence, compounds with maximum efficacy <25% of the Fexarmine control classified as '+'
# Procedure, shortened: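 CV-1 cells in DMEM with 10% charcoal-stripped FBS were transiently co-transfected with hFXR, hRXR, TK-ECRE-luc reporter and pCMX-YFP plasmids over 18 h at 37 °C. Compounds serially diluted in DMSO were added for 18 h; cells were then lysed and luciferase luminescence measured.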
row,EC50 [nM],SMILES
1,≤ 250,"COc1ncc(-c2cccc(N(C[C@H]3CC[C@H](c4ccc(OC)c(C)c4)CC3)C(=O)[C@H]3CC[C@H](C)CC3)c2)s1 [Compound 9.31, trans-N-((trans-4-(4-Methoxy-3-methylphenyl)cyclohexyl)methyl)-N-(3-(2-methoxythiazol-5-yl)phenyl)-4-methylcyclohexanecarboxamide]"
2,≤ 250,"COc1ccc([C@H]2CC[C@H](CN(c3cc(-c4cnc(C(C)C)s4)ccn3)C(=O)[C@H]3CC[C@H](O)CC3)CC2)nc1C [Compound 9.29, trans-4-Hydroxy-N-(4-(2-isopropylthiazol-5-yl)pyridin-2-yl)-N-((trans-4-(5-methoxy-6-methylpyridin-2-yl)cyclohexyl)methyl)cyclohexanecarboxamide]"
3,≤ 250,"COc1ncc(-c2cccc(N(C[C@H]3CC[C@H](c4ccc(OC)c(C)c4)CC3)C(=O)[C@H]3CC[C@H](OC)CC3)c2)s1 [Compound 9.33, trans-4-Methoxy-N-((trans-4-(4-methoxy-3-methylphenyl)cyclohexyl)methyl)-N-(3-(2-methoxythiazol-5-yl)phenyl)cyclohexanecarboxamide]"
4,≤ 250,"COc1ccc([C@H]2CC[C@H](CN(c3cccc(C#Cc4nccs4)c3)C(=O)[C@H]3CC[C@H](O)CC3)CC2)cc1C [Compound 18, trans-4-Hydroxy-N-((trans-4-(4-methoxy-3-methylphenyl)cyclohexyl)methyl)-N-(3-(thiazol-2-ylethynyl)phenyl)cyclohexanecarboxamide]"
5,≤ 250,"COc1ncc(-c2cccc(N(CC34CCC(c5ccc(OC)c(C)c5)(CC3)CC4)C(=O)[C@H]3CC[C@H](O)CC3)c2)s1 [Compound 11, trans-4-Hydroxy-N-((4-(4-methoxy-3-methylphenyl)bicyclo[2.2.2]octan-1-yl)methyl)-N-(3-(2-methoxythiazol-5-yl)phenyl)cyclohexanecarboxamide]"
6,≤ 250,"COc1ncc(-c2cccc(N(C[C@H]3CC[C@H](c4ccc(OC)c(C)c4)CC3)C(=O)[C@H]3CC[C@H](OC(C)C)CC3)c2)s1 [Compound 9.34, trans-4-Isopropoxy-N-((trans-4-(4-methoxy-3-methylphenyl)cyclohexyl)methyl)-N-(3-(2-methoxythiazol-5-yl)phenyl)cyclohexanecarboxamide]"
7,≤ 250,"CN(C)c1ccc(C23CCC(CN(c4cccc(-c5cnc(C6CC6)s5)c4)C(=O)[C@H]4CC[C@H](O)CC4)(CC2)CC3)cn1 [Compound 9.13, trans-N-(3-(2-Cyclopropylthiazol-5-yl)phenyl)-N-((4-(6-(dimethylamino)pyridin-3-yl)bicyclo[2.2.2]octan-1-yl)methyl)-4-hydroxycyclohexanecarboxamide]"
8,≤ 250,"COc1ccc([C@H]2CC[C@H](CN(c3cccc(-c4cnc(N5CCCC5)s4)c3)C(=O)[C@H]3CC[C@H](O)CC3)CC2)cc1C [Compound 6, trans-4-Hydroxy-N-((trans-4-(4-methoxy-3-methylphenyl)cyclohexyl)methyl)-N-(3-(2-(pyrrolidin-1-yl)thiazol-5-yl)phenyl)cyclohexanecarboxamide]"
9,250 to 1000,"COc1ccc([C@H]2CC[C@H](CN(c3cccc(-c4cnc(O)s4)c3)C(=O)[C@H]3CC[C@H](O)CC3)CC2)cc1C [Compound 3, trans-4-Hydroxy-N-(3-(2-hydroxythiazol-5-yl)phenyl)-N-((trans-4-(4-methoxy-3-methylphenyl)cyclohexyl)methyl) cyclohexanecarboxamide]"
10,≤ 250,"COc1ncc(-c2cccc(N(C[C@H]3CC[C@H](c4cnc(OC)c(Cl)c4)CC3)C(=O)[C@H]3CC[C@H](O)CC3)c2)s1 [Compound 9.04, trans-N-((trans-4-(5-Chloro-6-methoxypyridin-3-yl)cyclohexyl)methyl)-4-hydroxy-N-(3-(2-methoxythiazol-5-yl)phenyl)cyclohexanecarboxamide]"
11,250 to 1000,"COc1ccc([C@H]2CC[C@H](CN(c3cccc(-c4cnc(CCO)s4)c3)C(=O)[C@H]3CC[C@H](O)CC3)CC2)cc1C [Compound 7.20, trans-4-Hydroxy-N-(3-(2-(2-hydroxyethyl)thiazol-5-yl)phenyl)-N-((trans-4-(4-methoxy-3-methylphenyl)cyclohexyl)methyl) cyclohexanecarboxamide]"
12,≤ 250,"COc1ccc([C@H]2CC[C@H](CN(c3cc(-c4cnc(C5CC5)s4)ccn3)C(=O)[C@H]3CC[C@H](O)CC3)CC2)nc1C#N [Compound 9.23, trans-N-((trans-4-(6-Cyano-5-methoxypyridin-2-yl)cyclohexyl)methyl)-N-(4-(2-cyclopropylthiazol-5-yl)pyridin-2-yl)-4-hydroxycyclohexanecarboxamide]"
13,≤ 250,"COc1ncc(-c2cccc(N(C[C@H]3CC[C@H](c4ccc(OC)c(C)c4)CC3)C(=O)C3CCCCC3)c2)s1 [Compound 1.01, N-((trans-4-(4-Methoxy-3-methylphenyl)cyclohexyl)methyl)-N-(3-(2-methoxythiazol-5-yl)phenyl)cyclohexanecarboxamide]"
14,250 to 1000,"COc1cnc([C@H]2CC[C@H](CN(c3cccc(-c4cnc(C5CC5)s4)c3)C(=O)[C@H]3CC[C@H](O)CC3)CC2)cc1C [Compound 9.24, trans-N-(3-(2-Cyclopropylthiazol-5-yl)phenyl)-4-hydroxy-N-((trans-4-(5-methoxy-4-methylpyridin-2-yl)cyclohexyl)methyl)cyclohexanecarboxamide]"
15,≤ 250,"COc1ncc(-c2cccc(N(C[C@@H]3CC[C@@H](c4ccc(OC)c(C)c4)C(C)C3)C(=O)[C@H]3CC[C@H](O)CC3)c2)s1 (stereo partly drawn) [Compound 9.12, trans-4-Hydroxy-N-((trans-4-(4-methoxy-3-methylphenyl)-3-methylcyclohexyl)methyl)-N-(3-(2-methoxythiazol-5-yl)phenyl)cyclohexanecarboxamide]"
16,≤ 250,"COc1ccc([C@H]2CC[C@H](CN(c3cccc(-c4cnc(OC(C)C)s4)c3)C(=O)[C@H]3CC[C@H](O)CC3)CC2)cc1C [Compound 7.17, trans-4-Hydroxy-N-(3-(2-isopropoxythiazol-5-yl)phenyl)-N-((trans-4-(4-methoxy-3-methylphenyl)cyclohexyl)methyl) cyclohexanecarboxamide]"
17,≥ 1000,"COc1ncc(-c2cccc(N(C[C@H]3CC[C@@H](c4ccc(OC)c(C)c4)CC3)C(=O)[C@H]3CC[C@H](O)CC3)c2)s1 [Compound 2, trans-4-Hydroxy-N-((cis-4-(4-methoxy-3-methylphenyl)cyclohexyl)methyl)-N-(3-(2-methoxythiazol-5-yl)phenyl)cyclohexanecarboxamide]"
18,≤ 250,"COc1ccc([C@H]2CC[C@H](CN(c3cccc(-c4cnc(OC(F)F)s4)c3)C(=O)[C@H]3CC[C@H](O)CC3)CC2)cc1C [Compound 9.01, trans-N-(3-(2-(Difluoromethoxy)thiazol-5-yl)phenyl)-4-hydroxy-N-((trans-4-(4-methoxy-3-methylphenyl)cyclohexyl)methyl) cyclohexanecarboxamide]"
19,≤ 250,"COc1ncc(-c2cccc(N(C[C@@H]3CC[C@@H](c4ccc(OC)c(C)c4)CC3C)C(=O)[C@H]3CC[C@H](O)CC3)c2)s1 (stereo partly drawn) [Compound 9.11, trans-4-Hydroxy-N-((trans-4-(4-methoxy-3-methylphenyl)-2-methylcyclohexyl)methyl)-N-(3-(2-methoxythiazol-5-yl)phenyl)cyclohexanecarboxamide]"
20,≤ 250,"COc1ccc([C@H]2CC[C@H](CN(c3cccc(-c4cnc(C5CC5)s4)c3)C(=O)[C@H]3CC[C@H](O)CC3)CC2)cc1C#N [Compound 7.29, trans-N-((trans-4-(3-Cyano-4-methoxyphenyl)cyclohexyl)methyl)-N-(3-(2-cyclopropylthiazol-5-yl)phenyl)-4-hydroxycyclohexanecarboxamide]"
21,250 to 1000,"COc1ccc([C@H]2CC[C@H](CN(c3cccc(-c4cncs4)c3)C(=O)[C@H]3CC[C@H](O)CC3)CC2)cc1C [Compound 6.02, trans-4-Hydroxy-N-((trans-4-(4-methoxy-3-methylphenyl)cyclohexyl)methyl)-N-(3-(thiazol-5-yl)phenyl)cyclohexanecarboxamide]"
22,250 to 1000,"COc1ccc([C@H]2CC[C@H](CN(c3cccc(-c4cnc(C#N)s4)c3)C(=O)[C@H]3CC[C@H](O)CC3)CC2)cc1C [Compound 7.26, trans-N-(3-(2-Cyanothiazol-5-yl)phenyl)-4-hydroxy-N-((trans-4-(4-methoxy-3-methylphenyl)cyclohexyl)methyl) cyclohexanecarboxamide]"
